The values below are quoted from earlier work in patent US20110123555A1, “PREPARATION AND UTILITY OF CCR5 INHIBITORS” (AUSPEX PHARMACEUTICALS, INC., priority 2006, published 2011).

This series concerns 200 clinically-derived pseudoviruses. To be noted: half of which are derived from viruses resistant to existing drug classes.

Turning to `Cc1nnc(C(C)C)n1C1CC2CCC(C1)N2CCC(NC(=O)C1CCC(F)(F)CC1)c1ccccc1` (stereo not shown) [Maraviroc], the “active in vitro against clinically-derived pseudoviruses” value was “active”.
